Test system: de novo fatty acid synthesis
Assay: Lipid metabolite profile of plasma, heart, liver and inguinal adipose of CL316,243-treated mice (trial 2; Tables 7 and 8)
Assay type: in vivo
Conditions: for Total n9 / 14:0 / 16:0 / 16:1n7 / 18:0 / 18:1n7 / 18:1n9 / Saturates / Total n7 / Total nMole of FA: mean
Text: It is understood that the described methods can be used to analyze lipid metabolites from other subjects, including particularly animals other than mice.
Mouse tissue and plasma samples were a generous donation to Lipomics Technologies, Inc., from Dr. Edward Leiter of the Jackson Laboratory (Bar Harbor, Me.). Samples included the plasma, heart, liver and inguinal adipose of mice treated with pharmaceuticals or their corresponding controls.
In trial 2, male, inbred NON mice were fed a control with or without the presence of the β-3 adrenergic agonist CL316,243 for four weeks (at 0.001% CL316,243 by weight in the dietary chow).
In both studies, five treated and five control mice were used. Following the treatments and the killing of the mice, tissues and plasma were taken, chilled to −80 ° C. and shipped to the analysis laboratory at Lipomics Technologies in a frozen state.
Tissue processing and lipid extraction, including provision of internal standards, was carried out essentially as described in Watkins et al. (J. Lipid Res. Papers in Press, 10.1184/jlf.M200169-JLF200, published August 16, 2002), and in co-owned international application PCT/US02/21426, entitled “GENERATING, VIEWING, INTERPRETING, AND UTILIZING A QUANTITATIVE DATABASE OF METABOLITES,” both of which are incorporated in their entirety herein by reference.
The separation of lipid classes was performed in some instance by preparative thin-layer chromatography (TLC). To remove any residual metal or other damaging contaminants on the TLC plates, each plate was washed prior to use. Washing the plates is a three-step process that involves impregnating each plate with ethylenediamine tetraacetic acid (EDTA) and rinsing the plates once with methanol and once with chloroform. Each plate is first impregnated with 1 mM EDTA, pH 5.5, by ascending development using the method of Ruiz (J. Lipid Res. 38, 1482-1489, 1997). After each plate was completely developed, it was dried in air overnight. Once dry, each plate was developed in methanol, dried, and developed in chloroform in the same direction as the development with EDTA. The washed plates were then dried in air. Just prior to use, each plate was activated by heating to 110° C. for 10 minutes.
To prepare the TLC chamber for chromatography, Whatman (Clifton, N.J.) filter paper was cut into 20×80-cm strips and wrapped around the inside wall of a 30×60×10-cm glass development chamber. One hundred milliliters of the appropriate mobile phase was added to the chamber, and the chambers were sealed and allowed to equilibrate. Chambers were considered equilibrated when the solvent front had completely ascended the filter paper. The mobile phase employed for the separation of phospholipid classes (lyso-phospholipids, sphingomyelin, phosphatidylcholine, phosphatidylserine, phosphatidylethanolamine and cardiolipin) was a modification of the solvent system described by Holub and Skeaf (“Nutritional regulation of cellular phosphatidylinositol,” in Methods in Enzymology, ed. Conn, P. M. (Academic Press, Inc., Orlando), pp. 234-243, 1987) consisting of chloroform/methanol/acetic acid/water (100:67:7:4, by volume).
For the separation of neutral lipid classes (free fatty acids, free sterols, triacylglycerides and cholesterol esters), a solvent system consisting of petroleum ether/diethyl ether/acetic acid (80:20:1, by volume) was used (Mangold, Thin Layer Chromatography—A Laboratory Handbook (Springer-Verlag, New York), 1969).
After the TLC plate was activated, the sample extracts were spotted onto the activated plate. As a general rule, samples were spotted at an estimated concentration such that no single lipid class was present at more than 25 jig per centimeter of plate width following chromatography. This ensured that the plate was not overloaded and minimized the risk of cross-contamination between lipid classes (cross-contamination is readily identified during sample analysis as each lipid class contains unique internal standards). […]

## C[C@H](Cc1ccc2c(c1)OC(C(=O)[O-])(C(=O)[O-])O2)NC[C@H](O)c1cccc(Cl)c1.[Na+].[Na+] [CL316,243]
Liver, lipid class PS/I
  Total n9: 5.4 percentage of total fatty acids
Liver, lipid class TAG
  14:0: 1.1 percentage of total fatty acids
  16:0: 32.1 percentage of total fatty acids
  16:1n7: 3.2 percentage of total fatty acids
  18:0: 3.3 percentage of total fatty acids
  18:1n7: 2.9 percentage of total fatty acids
  18:1n9: 34.1 percentage of total fatty acids
Plasma, CE
  14:0: 21.2 nanomoles per gram
  16:0: 114.4 nanomoles per gram
  16:1n7: 84.9 nanomoles per gram
  18:0: 16.5 nanomoles per gram
  18:1n7: 13.5 nanomoles per gram
  18:1n9: 194.2 nanomoles per gram
  Saturates: 162.9 nanomoles per gram
  Total n7: 98.4 nanomoles per gram
  Total n9: 198.7 nanomoles per gram
  Total nMole of FA: 2584.1 nanomoles per gram
Plasma, FFA
  14:0: 22.1 nanomoles per gram
  16:0: 102.3 nanomoles per gram
  16:1n7: 15.4 nanomoles per gram
  18:0: 36.9 nanomoles per gram
  18:1n7: 9.8 nanomoles per gram
  18:1n9: 160.6 nanomoles per gram
  Saturates: 167.7 nanomoles per gram
  Total n7: 25.2 nanomoles per gram
  Total n9: 163.1 nanomoles per gram
  Total nMole of FA: 424.7 nanomoles per gram
Plasma, LysoPC
  14:0: 2.9 nanomoles per gram
  16:0: 241.6 nanomoles per gram
  16:1n7: 4.8 nanomoles per gram
  18:0: 127.4 nanomoles per gram
  18:1n7: 6.9 nanomoles per gram
  18:1n9: 47.5 nanomoles per gram
  Saturates: 381.9 nanomoles per gram
  Total n7: 11.8 nanomoles per gram
  Total n9: 49.4 nanomoles per gram
  Total nMole of FA: 643.1 nanomoles per gram
Plasma, PC
  14:0: 5.5 nanomoles per gram
  16:0: 1121.4 nanomoles per gram
  16:1n7: 15.3 nanomoles per gram
  18:0: 670.9 nanomoles per gram
  18:1n7: 58.8 nanomoles per gram
  18:1n9: 309.6 nanomoles per gram
  Saturates: 1820.6 nanomoles per gram
  Total n7: 74.0 nanomoles per gram
  Total n9: 320.0 nanomoles per gram
  Total nMole of FA: 1928.9 nanomoles per gram
Plasma, PE
  14:0: 4.1 nanomoles per gram
  16:0: 33.9 nanomoles per gram
  16:1n7: 3.3 nanomoles per gram
  18:0: 28.2 nanomoles per gram
  18:1n7: 2.5 nanomoles per gram
  18:1n9: 31.5 nanomoles per gram
  Saturates: 74.0 nanomoles per gram
  Total n7: 5.8 nanomoles per gram
  Total n9: 33.4 nanomoles per gram
  Total nMole of FA: 106.7 nanomoles per gram
Plasma, PL
  14:0: 7.6 nanomoles per gram
  16:0: 1315.0 nanomoles per gram
  16:1n7: 20.3 nanomoles per gram
  18:0: 847.2 nanomoles per gram
  18:1n7: 69.7 nanomoles per gram
  18:1n9: 380.8 nanomoles per gram
  Saturates: 2221.2 nanomoles per gram
  Total n7: 90.0 nanomoles per gram
  Total n9: 429.4 nanomoles per gram
  Total nMole of FA: 2464.5 nanomoles per gram
Plasma, TAG
  14:0: 17.6 nanomoles per gram
  16:0: 219.3 nanomoles per gram
  16:1n7: 33.1 nanomoles per gram
  18:0: 45.7 nanomoles per gram
  18:1n7: 23.7 nanomoles per gram
  18:1n9: 268.3 nanomoles per gram
  Saturates: 295.4 nanomoles per gram
  Total n7: 56.8 nanomoles per gram
  Total n9: 276.2 nanomoles per gram
  Total nMole of FA: 344.8 nanomoles per gram
Plasma, lipid class CE
  14:0: 0.8 percentage of total fatty acids
  16:0: 4.5 percentage of total fatty acids
  16:1n7: 3.2 percentage of total fatty acids
  18:0: 0.7 percentage of total fatty acids
  18:1n7: 0.5 percentage of total fatty acids
  18:1n9: 7.5 percentage of total fatty acids
Plasma, lipid class FFA
  14:0: 5.7 percentage of total fatty acids
  16:0: 28.1 percentage of total fatty acids
  16:1n7: 3.2 percentage of total fatty acids
  18:0: 10.0 percentage of total fatty acids
  18:1n7: 2.1 percentage of total fatty acids
  18:1n9: 31.0 percentage of total fatty acids
Plasma, lipid class LY
  14:0: 0.5 percentage of total fatty acids
  16:0: 37.8 percentage of total fatty acids
  16:1n7: 0.7 percentage of total fatty acids
  18:0: 20.1 percentage of total fatty acids
  18:1n7: 1.0 percentage of total fatty acids
  18:1n9: 7.2 percentage of total fatty acids
Plasma, lipid class PC
  14:0: 0.1 percentage of total fatty acids
  16:0: 29.0 percentage of total fatty acids
  16:1n7: 0.4 percentage of total fatty acids
  18:0: 17.5 percentage of total fatty acids
  18:1n7: 1.5 percentage of total fatty acids
  18:1n9: 7.9 percentage of total fatty acids
Plasma, lipid class PE
  14:0: 1.9 percentage of total fatty acids
  16:0: 16.1 percentage of total fatty acids
  16:1n7: 1.4 percentage of total fatty acids
  18:0: 13.5 percentage of total fatty acids
  18:1n7: 1.1 percentage of total fatty acids
  18:1n9: 13.1 percentage of total fatty acids
Plasma, lipid class PL
  14:0: 0.2 percentage of total fatty acids
  16:0: 26.6 percentage of total fatty acids
  16:1n7: 0.4 percentage of total fatty acids
  18:0: 17.3 percentage of total fatty acids
  18:1n7: 1.4 percentage of total fatty acids
  18:1n9: 7.7 percentage of total fatty acids
Plasma, lipid class TAG
  14:0: 1.7 percentage of total fatty acids
  16:0: 21.1 percentage of total fatty acids
  16:1n7: 3.2 percentage of total fatty acids
  18:0: 4.4 percentage of total fatty acids
  18:1n7: 2.3 percentage of total fatty acids
  18:1n9: 25.8 percentage of total fatty acids
Male inbred NON mice, 0.001% CL316,243 in chow 4 weeks, vs controls (Tables 7 and 8)
  palmitoleic acid concentrations in most lipid classes in heart, liver, adipose and plasma: substantial decrease
